From patent publication US20250277012A1 (Protagonist Therapeutics, Inc., priority 2021, published 2025)
Positions of bridges follow the written chain, without caps; N, C: chain ends. Non-standard residues stand in square brackets, D forms with d. Residues, ends and D or L forms follow the SMILES beside them. Groups on a side chain read outwards from the residue. *: point of attachment. X2 = C[N+](C)(CCNC(=O)CCCCCCCCCCCCCCCCC(=O)O)CC(=O)NCC[N+](C)(C)CC(=O)*; X1 = C[N+](C)(CCNC(=O)CCCCCCCCCCCCCCCCC(=O)O)CC(=O)*; X5 = CCCCCCCCCCCCCCCC(=O)NCC[N+](C)(C)CC(=O)*; C18 diacid = O=C(O)CCCCCCCCCCCCCCCCC(=O)*; Dip = N[C@H](C(=O)O)C(c1ccccc1)c1ccccc1; Pro(3R-OH) = O=C(O)[C@H]1NCC[C@H]1O; NMeF = CN[C@@H](Cc1ccccc1)C(=O)O; NMeT = CN[C@H](C(=O)O)[C@@H](C)O; β3hF = N[C@H](CC(=O)O)Cc1ccccc1; NMeK = CN[C@@H](CCCCN)C(=O)O; Isovaleryl = CC(C)CC(=O)*; NMeC = CN[C@@H](CS)C(=O)O; Dap = NC[C@H](N)C(=O)O; AEEA = NCCOCCOCC(=O)O; Ahx = NCCCCCC(=O)O

target: T1, ferroportin (Homo sapiens, UniProt Q9NP59); experiment: T47D cell-based ferroportin internalization assay in presence of mouse serum albumin (MSA); set-up: a human breast carcinoma adherent cell line which endogenously expresses ferroportin; host or cells: T47D; settings: T47D internalization assay in presence of mouse serum albumin (MSA); Table 6E
T1 sequence (Q9NP59 1-571): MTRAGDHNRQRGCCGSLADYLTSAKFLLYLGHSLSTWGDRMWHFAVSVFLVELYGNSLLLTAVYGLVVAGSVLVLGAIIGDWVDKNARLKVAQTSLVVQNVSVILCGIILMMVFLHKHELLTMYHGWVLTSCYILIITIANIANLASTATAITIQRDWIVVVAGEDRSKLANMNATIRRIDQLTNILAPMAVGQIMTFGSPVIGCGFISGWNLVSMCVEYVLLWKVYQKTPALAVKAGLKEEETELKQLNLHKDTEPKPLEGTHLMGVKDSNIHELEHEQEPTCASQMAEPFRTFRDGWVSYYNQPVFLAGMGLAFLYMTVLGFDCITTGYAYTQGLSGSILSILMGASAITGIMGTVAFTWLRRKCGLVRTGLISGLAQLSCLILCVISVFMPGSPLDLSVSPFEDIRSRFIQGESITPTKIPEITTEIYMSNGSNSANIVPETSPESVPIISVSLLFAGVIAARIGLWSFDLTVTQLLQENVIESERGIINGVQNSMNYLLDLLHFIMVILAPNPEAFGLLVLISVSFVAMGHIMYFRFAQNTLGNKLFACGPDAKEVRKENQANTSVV
Method: The potency of the peptides in causing ferroportin internalization was evaluated in a T47D cell-based assay. […] In this internalization assay, the potency of the test peptides was evaluated in presence of serum albumin which is the main protein component in the blood. T47D cells were maintained in RPMI media (containing required amount of fetal bovine serum) and regularly sub-cultured. In preparation for the assay, the cells were seeded in 96-well plates at a density of 80-100 k cells per well in 100 ul volume and allowed to rest overnight. […] Sigma, A3139). The test peptide dilution series were allowed to incubate at room temperature for 30 min. Then the media was aspirated from the 96-well cell plate and test peptide dilution series were added. […] The AF647-conjugated detection peptide was previously verified to bind to ferroportin and cause its internalization. The cells were washed again after a 2 hr incubation in preparation for flow cytometry analysis. The Median Fluorescence Intensity (MFI) of the AF647-positive population was measured (after removing dead cells and non-singlets from the analysis). The MFI values were used to generate a dose-response curve and obtain IC50 potencies for the test peptides.

Row | IC50 [nM] | SMILES
1 | 10 to 100 | CC(C)CC(=O)N[C@@H](CCC(=O)O)C(=O)N[C@H](C(=O)N[C@@H](Cc1c[nH]cn1)C(=O)N[C@H](C(=O)N1CCC[C@H]1C(=O)N[C@H]1CSSC[C@@H](C(=O)N(C)[C@@H](CCCCNC(=O)COCCOCCNC(=O)COCCOCCNC(=O)[C@H](CN)NC(=O)CCCCCCCCCCCCCCCCC(=O)O)C(=O)N(C)[C@@H](Cc2ccccc2)C(=O)N[C@H](CCCCN)C(N)=O)N(C)C1=O)C(c1ccccc1)c1ccccc1)[C@@H](C)O [compound 266] (Isovaleryl-ETH[Dip]PC[NMeC][NMeK]([AEEA-AEEA-Dap-C18 diacid])[NMeF][dK]-NH2; disulfide 6-7)
2 | 100 to 500 | CC(C)CC(=O)N[C@@H](CN)C(=O)N[C@H](C(=O)N[C@@H](Cc1c[nH]cn1)C(=O)N[C@H](C(=O)N1CCC[C@H]1C(=O)N[C@H]1CSSC[C@@H](C(=O)N(C)[C@@H](CCCCNC(=O)COCCOCCNC(=O)COCCOCCNC(=O)[C@H](CN)NC(=O)CCCCCCCCCCCCCCCCC(=O)O)C(=O)N[C@H](CC(=O)N[C@H](CCCCN)C(N)=O)Cc2ccccc2)NC1=O)C(c1ccccc1)c1ccccc1)[C@@H](C)O [compound 289] (Isovaleryl-[Dap]TH[Dip]PCC[NMeK]([AEEA-AEEA-Dap-C18 diacid])[β3hF][dK]-NH2; disulfide 6-7)
3 | 10 to 100 | COC(=O)CC[C@H](NC(=O)CC(C)C)C(=O)N[C@H](C(=O)N[C@@H](Cc1c[nH]cn1)C(=O)N[C@H](C(=O)N1CCC[C@H]1C(=O)N[C@H]1CSSC[C@@H](C(=O)N(C)[C@@H](CCCCNC(=O)COCCOCCNC(=O)COCCOCCNC(=O)C[N+](C)(C)CCNC(=O)CCCCCCCCCCCCCCCCC(=O)O)C(=O)N[C@H](CC(=O)N[C@H](CCCCN)C(N)=O)Cc2ccccc2)NC1=O)C(c1ccccc1)c1ccccc1)[C@@H](C)O [compound 231] (Isovaleryl-E(OMe)TH[Dip]PCC[NMeK]([AEEA-AEEA-X1])[β3hF][dK]-NH2; disulfide 6-7)

same assay, conditions: Table 6E; T47D internalization assay with MSA

Row | IC50 [nM] | SMILES
4 | 100 to 500 | COC(=O)CC[C@H](NC(=O)CC(C)C)C(=O)N(C)[C@H](C(=O)N[C@@H](Cc1c[nH]cn1)C(=O)N[C@H](C(=O)N1CCC[C@H]1C(=O)N[C@H]1CSSC[C@@H](C(=O)N(C)[C@@H](CCCCNC(=O)C[N+](C)(C)CCNC(=O)CCCCCCCCCCCCCCCCC(=O)O)C(=O)N[C@H](C(N)=O)C(c2ccccc2)c2ccccc2)NC1=O)C(c1ccccc1)c1ccccc1)[C@@H](C)O [compound 186] (Isovaleryl-E(OMe)[NMeT]H[Dip]PCC[NMeK](X1)[Dip]-NH2; disulfide 6-7)
5 | 10 to 100 | COC(=O)CC[C@H](NC(=O)CC(C)C)C(=O)N[C@H](C(=O)N[C@@H](Cc1c[nH]cn1)C(=O)N[C@H](C(=O)N1CCC[C@H]1C(=O)N[C@H]1CSSC[C@@H](C(=O)N[C@@H](CCCCNC(=O)C[N+](C)(C)CCNC(=O)C[N+](C)(C)CCNC(=O)CCCCCCCCCCCCCCCCC(=O)O)C(=O)N[C@H](C(=O)N[C@H](CCCCN)C(N)=O)C(c2ccccc2)c2ccccc2)NC1=O)C(c1ccccc1)c1ccccc1)[C@@H](C)O [compound 209] (Isovaleryl-E(OMe)TH[Dip]PCCK(X2)[Dip][dK]-NH2; disulfide 6-7)
6 | 100 to 500 | CC(C)CC(=O)N[C@@H](CCC(=O)O)C(=O)N(C)[C@H](C(=O)N[C@@H](Cc1c[nH]cn1)C(=O)N[C@H](C(=O)N1CCC[C@H]1C(=O)N[C@H]1CSSC[C@@H](C(=O)N(C)[C@@H](CCCCNC(=O)CCCCCNC(=O)C[N+](C)(C)CCNC(=O)CCCCCCCCCCCCCCCCC(=O)O)C(=O)N[C@H](C(N)=O)C(c2ccccc2)c2ccccc2)NC1=O)C(c1ccccc1)c1ccccc1)[C@@H](C)O [compound 189] (Isovaleryl-E[NMeT]H[Dip]PCC[NMeK]([Ahx-X1])[Dip]-NH2; disulfide 6-7)
7 | 1 to 10 | CCCCCCCCCCCCCCCC(=O)NCC[N+](C)(C)CC(=O)NCCCC[C@@H](C(=O)N[C@H](C(=O)N[C@H](CCCCN)C(N)=O)C(c1ccccc1)c1ccccc1)N(C)C(=O)[C@@H]1CSSC[C@H](NC(=O)[C@@H]2CCCN2C(=O)[C@@H](NC(=O)[C@H](Cc2cnc[nH]2)NC(=O)[C@@H]2[C@H](O)CCN2C(=O)[C@H](CCC(=O)O)NC(=O)CC(C)C)C(c2ccccc2)c2ccccc2)C(=O)N1 [compound 152] (Isovaleryl-E[Pro(3R-OH)]H[Dip]PCC[NMeK](X5)[Dip][dK]-NH2; disulfide 6-7)
